Assay: Plasma pharmacokinetics of DMT, harmine and their metabolites (non-compartmental analysis)
Conditions: DMT + harmine condition, mean (SD)
Procedure: The study was conducted as a within-subject, double-blind, randomized placebo-controlled trial. Randomization was performed by an independent individual using a computer-generated random number sequence. All participants underwent 3 randomized drug treatments on separate study days, with an intervening washout period of at least 2 weeks: (1) DMT/HAR: harmine hydrochloride (HCl; 100 mg; buccal orodispersible tablet; ODT) plus DMT (as hemifumarate; 100 mg; intranasal: 10 mg every 15 minutes over 150 minutes), (2) HAR/PLA: harmine (100 mg, buccal ODT) plus placebo nasal spray (NaCl; at same dosing intervals), and (3) PLA/PLA: placebo buccal ODT plus placebo nasal spray. In all conditions, buccal tablets were premedicated for 30 minutes. Food or water intake was not allowed 2 hours before drug administration.
Thirty minutes following buccal premedication with harmine HCl (100 mg) or placebo, the intranasal repeated-intermittent administration of DMT or placebo was initiated. Volunteers received up to 100 mg DMT in 10 mg dosing steps each 15 minutes (2 × 2 puffs per nostril) over a period of 150 minutes (except for a 30-minute break between 60 and 90 minutes due to a behavioral task). […] Volunteers could adjust each dose (0, 5, 10 mg) based on tolerance, with encouragement to follow the regimen if no adverse effects (AEs) occurred. Thus, volunteers were given the chance to control the psychedelic strength of the experience to enhance safety and tolerability.
Blood samples were collected from the left or right antecubital vein at −30 (baseline), 0, 30, 60, 90, 120, 150, 180, 195, 210, 240, 270, and 300 minutes after first DMT/placebo administration for analysis of blood plasma levels of harmine, DMT, the 3 major DMT metabolites 3-IAA, DMT-N-oxide, and NMT and the major harmine metabolite harmol. While DMT administration was ongoing, blood drawing was always performed right before DMT administration (time point -1 minute). The venous catheter was connected to a 100 mm Heidelberger plastic tube extension to collect blood samples without disturbing the volunteers during their psychedelic experience. The intravenous line was kept patent with a slow drip (10 mL/h) of heparinized saline (1000 IU heparin in 0.9 g NaCl/dL; HEPARIN Bichsel; Bichsel AG). Blood samples were immediately centrifuged for 10 minutes at 2000 RCF. Then, plasma was transferred to Eppendorf tubes, shock-frosted in liquid nitrogen (~ −196 °C) and stored at −80 °C until assay.
The data were analyzed and visualized with R Studio version 2021.09.2 + 382.[36] PK-PD parameters were computed using the R-package PKNCA.[37] For Cmax, tmax, AUCs (area under the curves), and half-life calculations, non-compartmental analyses were performed.[38] […] Post hoc pairwise comparisons were calculated using paired Wilcoxon signed-rank tests. P-values were adjusted using the Benjamini-Hochberg multiple testing correction method. Pearson or Spearman correlations were performed (as appropriate according to Shapiro-Wilk tests) to analyze associations between DMT plasma levels and subjective effects.
For the sample preparation 200 µl of plasma were spiked with 50 µl internal standard (IS) mixture (40 ng/ml DMT-d6 and harmine-d3) and 50 µl methanol (MeOH). Proteins were precipitated by adding 400 µl of acetonitrile (ACN). The samples were shaken for 10 minutes and centrifuged for 5 min at 10‘000 rpm. 350 µl of the supernatant was transferred into an auto-sampler vial, evaporated to dryness under a gentle stream of nitrogen at room temperature and reconstituted in 100 µl eluent-mixture (98:2, v/v).

Q: Which t1/2 (plasma elimination half-life) does the source give for `C[N+](C)([O-])CCc1c[nH]c2ccccc12` [DMT-N-oxide] here?
A: The t1/2 was 1.2 (0.4) h.

Q: And the AUCinf (plasma, time zero to infinity)?
A: Its AUCinf is 69.2 (22.1) ng × h/mL.

From article PMC11770821, “Pharmacokinetics and pharmacodynamics of an innovative psychedelic N,N-dimethyltryptamine/harmine formulation in healthy participants: a randomized controlled trial” (International Journal of Neuropsychopharmacology, 2025)
